33 molecules from patent US11299478B2, “2-cyanopyrimidin-4-yl carbamate or urea derivative or salt thereof, and pharmaceutical composition including same” (HANLIM PHARMACEUTICAL CO., LTD., priority 2018, dated 2022) can be followed below.

The experiment addresses T1, cathepsin K (Homo sapiens, UniProt P43235).
T1 sequence (P43235 115-329): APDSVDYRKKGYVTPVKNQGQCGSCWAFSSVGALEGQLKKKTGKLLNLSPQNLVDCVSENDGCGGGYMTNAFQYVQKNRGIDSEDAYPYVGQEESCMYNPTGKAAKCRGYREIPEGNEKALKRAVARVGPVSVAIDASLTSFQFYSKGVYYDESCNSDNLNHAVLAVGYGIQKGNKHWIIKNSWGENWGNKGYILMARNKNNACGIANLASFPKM
The experiment can be described thus: Inhibitory activity assay against cathepsin K (enzyme assay). The experiment is classed as biochemical. The following applies: Z-Phe-Arg-AMC 10 μM, enzyme 1 nM, pH 5.5, 30 minutes. How it is done:
In order to measure the enzyme activity of cathepsin K, a buffer solution (pH 5.5) consisting of 50 mM 2-(N-morpholino)ethanesulfonic acid (MES), 2 mM dithiothreitol (DTT), 2.5 mM ethylenediaminetetraacetic acid (EDTA), 0.01% Triton X-100, and 10% dimethyl sulfoxide (DMSO) was prepared. The substrate, the test material, and the enzyme were mixed in the buffer solution in a predetermined concentration. The Z-Phe-Arg-AMC substrate was used in the final concentration of 10 μM. The test material was used in the final concentrations of 10.0 μM, 3.33 μM, 1.11 μM, 0.370 μM, 0.123 μM, 0.0412 μM, 0.0137 μM, 0.00457 μM, 0.00152 μM, and 0.000508 μM, respectively. The cathepsin K enzyme was used in the final concentration of 1 nM. The final volume of the enzyme reaction solution was 10 μL. After reacting the mixture of substrate, test material, and enzyme for 30 minutes, the enzyme activity was measured with the Synergy Neo (Biotek) microplate reader at an absorption wavelength of 355 nm and an emission wavelength of 460 nm. IC50 values were determined using 4-parameter logistic curve fit program of GraphPad Prism.

What is called IC50 is the point on the concentration scale where inhibition reaches its midpoint. In the case of `N#Cc1nccc(C2(NC(=O)OCc3ccccc3)CCCC2)n1` [Example 1, Benzyl (1-(2-cyanopyrimidin-4-yl)cyclopentyl)carbamate], the IC50 was 23 nM.

Regarding `Cc1cccc(COC(=O)NC2(c3ccnc(C#N)n3)CCCC2)c1` [Example 5, 3-methylbenzyl (1-(2-cyanopyrimidin-4-yl)cyclopentyl)carbamate], the IC50 was found to be 161 nM.

Regarding `COc1cccc(COC(=O)NC2(c3ccnc(C#N)n3)CCCC2)c1` [Example 6, 3-methoxybenzyl (1-(2-cyanopyrimidin-4-yl)cyclopentyl)carbamate], the concentration for half-maximal inhibition (IC50) was 179 nM.

Consider `N#Cc1nccc(C2(NC(=O)OCc3cccc(Cl)c3)CCCC2)n1` [Example 8, 3-chlorobenzyl (1-(2-cyanopyrimidin-4-yl)cyclopentyl)carbamate], for which the IC50 came to 285 nM.

Consider `N#Cc1cccc(COC(=O)NC2(c3ccnc(C#N)n3)CCCC2)c1` [Example 9, 3-cyanobenzyl (1-(2-cyanopyrimidin-4-yl)cyclopentyl)carbamate], for which the IC50 amounted to 490 nM.

`N#Cc1nccc(C2(NC(=O)OCc3cccc(-c4ccc(N5CCOCC5)cc4)c3)CCCC2)n1` [Example 32, (4′-morpholino-[1,1′-biphenyl]-3-yl)methyl (1-(2-cyanopyrimidin-4-yl)cyclopentyl)carbamate]: the IC50 is at least 10000 nM.

As for `Cn1ncc2ccc(-c3ccc(COC(=O)NC4(c5ccnc(C#N)n5)CCCC4)cc3)cc21` [Example 34, 4-(1-methyl-1H-indazol-6-yl)benzyl (1-(2-cyanopyrimidin-4-yl)cyclopentyl)carbamate], the IC50 worked out at 2040 nM.

As to `Cc1ccccc1NC(=O)NC1(c2ccnc(C#N)n2)CCCC1` [Example 37, 1-(1-(2-cyanopyrimidin-4-yl)cyclopentyl)-3-(ortho-tolyl)urea], the IC50 turned out to be 113 nM.

In the case of `Cc1ccc(NC(=O)NC2(c3ccnc(C#N)n3)CCCC2)cc1` [Example 39, 1-(1-(2-cyanopyrimidin-4-yl)cyclopentyl)-3-(para-tolyl)urea], the IC50 amounted to 108 nM.

As to `N#Cc1nccc(C2(NC(=O)NCCc3ccc(S(N)(=O)=O)cc3)CCCC2)n1` [Example 45, 4-(2-(3-(1-(2-cyanopyrimidin-4-yl)cyclopentyl)ureido)ethyl)benzenesulfonamide], the IC50 stood at 3430 nM.

Consider `Cc1cccc(CNC(=O)NC2(c3ccnc(C#N)n3)CCCC2)c1` [Example 47, 1-(1-(2-cyanopyrimidin-4-yl)cyclopentyl)-3-(3-methylbenzyl)urea], for which the IC50 stood at 105 nM.

Turning to `COc1ccc(CNC(=O)NC2(c3ccnc(C#N)n3)CCCC2)cc1OC` [Example 49, 1-(1-(2-cyanopyrimidin-4-yl)cyclopentyl)-3-(3,4-dimethoxybenzyl)urea], the IC50 amounted to 590 nM.

Regarding `N#Cc1nccc(C2(NC(=O)Nc3ccc(N4CCNCC4)cc3)CCCC2)n1` [Example 52, 1-(1-(2-cyanopyrimidin-4-yl)cyclopentyl)-3-(4-(piperazin-1-yl)phenyl)urea], the IC50 worked out at 608 nM.

For the molecule `N#Cc1nccc(C2(NC(=O)NCc3ccoc3)CCCC2)n1` [Example 53, 1-(1-(2-cyanopyrimidin-4-yl)cyclopentyl)-3-(furan-3-ylmethyl)urea], the IC50 is 320 nM.

Take `N#Cc1nccc(C2(NC(=O)NCc3cccc(C(F)(F)F)c3)CCCC2)n1` [Example 57, 1-(1-(2-cyanopyrimidin-4-yl)cyclopentyl)-3-(3-(trifluoromethyl)benzyl)urea]: the IC50 was found to be 517 nM.

For `N#Cc1nccc(C2(NC(=O)NCc3ccc(C(F)(F)F)cc3)CCCC2)n1` [Example 58, 1-(1-(2-cyanopyrimidin-4-yl)cyclopentyl)-3-(4-(trifluoromethyl)benzyl)urea], the IC50 was found to be 116 nM.

With `N#Cc1nccc(C2(NC(=O)Nc3ccccc3C(F)(F)F)CCCC2)n1` [Example 59, 1-(1-(2-cyanopyrimidin-4-yl)cyclopentyl)-3-(2-(trifluoromethyl)phenyl)urea], the IC50 was 174 nM.

As to `N#Cc1nccc(C2(NC(=O)Nc3ccc(C(F)(F)F)cc3)CCCC2)n1` [Example 61, 1-(1-(2-cyanopyrimidin-4-yl)cyclopentyl)-3-(4-(trifluoromethyl)phenyl)urea], the IC50 was 292 nM.

For the molecule `COc1ccccc1CNC(=O)NC1(c2ccnc(C#N)n2)CCCC1` [Example 68, 1-(1-(2-cyanopyrimidin-4-yl)cyclopentyl)-3-(2-methoxybenzyl)urea], the IC50 worked out at 219 nM.

As to `COc1cccc(CNC(=O)NC2(c3ccnc(C#N)n3)CCCC2)c1` [Example 69, 1-(1-(2-cyanopyrimidin-4-yl)cyclopentyl)-3-(3-methoxybenzyl)urea], the IC50 turned out to be 552 nM.

For the molecule `COc1ccc(CNC(=O)NC2(c3ccnc(C#N)n3)CCCC2)cc1` [Example 70, 1-(1-(2-cyanopyrimidin-4-yl)cyclopentyl)-3-(4-methoxybenzyl)urea], the IC50 is 270 nM.

Regarding `N#Cc1nccc(C2(NC(=O)Nc3cccc(O)c3)CCCC2)n1` [Example 71, 1-(1-(2-cyanopyrimidin-4-yl)cyclopentyl)-3-(3-hydroxyphenyl)urea], the IC50 came out at 547 nM.

Regarding `N#Cc1nccc(C2(NC(=O)Nc3ccc(S(N)(=O)=O)cc3)CCCC2)n1` [Example 72, 4-(3-(1-(2-cyanopyrimidin-4-yl)cyclopentyl)ureido)benzenesulfonamide], the IC50 is 331 nM.

In the case of `N#Cc1nccc(C2(NC(=O)Nc3ccccc3O)CCCC2)n1` [Example 73, 1-(1-(2-cyanopyrimidin-4-yl)cyclopentyl)-3-(2-hydroxyphenyl)urea], the IC50 amounted to 315 nM.

`Cn1ncc2cc(NC(=O)NC3(c4ccnc(C#N)n4)CCCC3)ccc21` [Example 76, 1-(1-(2-cyanopyrimidin-4-yl)cyclopentyl)-3-(1-methyl-1H-indazol-5-yl)urea]: the IC50 is 573 nM.

Regarding `COc1ccccc1NC(=O)NC1(c2ccnc(C#N)n2)CCCC1` [Example 79, 1-(1-(2-cyanopyrimidin-4-yl)cyclopentyl)-3-(2-methoxyphenyl)urea], the IC50 came out at 3080 nM.

`COc1cccc(NC(=O)NC2(c3ccnc(C#N)n3)CCCC2)c1` [Example 80, 1-(1-(2-cyanopyrimidin-4-yl)cyclopentyl)-3-(3-methoxyphenyl)urea]: the IC50 was 157 nM.

Take `COc1ccc(NC(=O)NC2(c3ccnc(C#N)n3)CCCC2)cc1` [Example 81, 1-(1-(2-cyanopyrimidin-4-yl)cyclopentyl)-3-(4-methoxyphenyl)urea]: the IC50 was 162 nM.

Turning to `N#Cc1nccc(C2(NC(=O)Nc3cccc(-c4ccc(C(F)(F)F)cc4)c3)CCCCC2)n1` [Example 112, 1-(1-(2-cyanopyrimidin-4-yl)cyclohexyl)-3-(4′-(trifluoromethyl)-[1,1′-biphenyl]-3-yl)urea], the IC50 was 147 nM.

Consider `N#Cc1nccc(C2(NC(=O)Nc3ccc(C(=O)O)cc3)CCCCC2)n1` [Example 135, 4-(3-(1-(2-cyanopyrimidin-4-yl)cyclohexyl)ureido)benzoic acid], for which the IC50 is 111 nM.

With `CC(C)C1CCN(c2ccc(NC(=O)NC3(c4ccnc(C#N)n4)CCCCC3)cc2)CC1` [Example 145, 1-(1-(2-cyanopyrimidin-4-yl)cyclohexyl)-3-(4-(4-isopropylpiperidin-1-yl)phenyl)urea], the IC50 stood at 76 nM.

`COCCc1ccc(OCc2ccc(-c3ccc(NC(=O)NC4(c5ccnc(C#N)n5)CCCCC4)cc3)cc2)cc1` [Example 152, 1-(1-(2-cyanopyrimidin-4-yl)cyclohexyl)-3-(4′-((4-(2-methoxyethyl)phenoxy)methyl)-[1,1′-biphenyl]-4-yl)urea]: the IC50 came out at 2400 nM.

`COC(=O)CCC#Cc1ccc(-c2ccc(NC(=O)NC3(c4ccnc(C#N)n4)CCCCC3)cc2)cc1` [Example 175, methyl 5-(4′-(3-(1-(2-cyanopyrimidin-4-yl)cyclohexyl)ureido)-[1,1′-biphenyl]-4-yl)pent-4-ynoate]: the IC50 was found to be 136 nM.
